Measured values: US10106540B2, “HDAC6 inhibitors and their uses” (Universität Regensburg, priority 2014, dated 2018)

How the values were obtained:
HEL leukemic cells = test: Western blot analysis in HEL leukemic cells (JAK2 V617F); assay type: cell-based, human; conditions: 24 h, Western blot
Procedure: Human leukemia cell line HEL with JAK2 V617F mutation (DSMZ Accession No: ACC-11).
(§1) The assay is carried out as described in Buchwald et al. 2010 and Buchwald et al. 2013. Briefly, cells were collected and lysed in NET-N buffer (150 mM NaCl, 1 mM EDTA, 50 mM Tris-HCl (pH 7.8), 0.5% Nonidet P-40 (NP-40), 1 mM phenylmethylsulfonyl fluoride, 0.5 mg/ml leupeptin and 0.5 mg/ml pepstatin) followed by mild sonification on ice. Protein lysate ([…]) was boiled in Laemmli buffer and separated on SDS-polyacrylamide gel electrophoresis for western blotting with specific antibodies. All lysates were assessed by Bradford assay for protein concentrations.

RKO cells = test: Western blot analysis in RKO colorectal cancer cells; assay type: cell-based, human
Procedure: FIG. 5. Various cancer cells were treated for 24 h as shown and tested by Western blot analysis.
(D) Inhibition of HDAC6 protects it from degradation by the addition of a pro-apoptotic agent (staurosporine, ST).
The total amount of vinculin serves as a loading control; Proof of tubulin acetylation serves as proof of the treatment accuracy. The loss of the caspase-3 corresponds to the induction of apoptosis (programmed cell death).
Human colon cancer cell lines RKO (ATCC Accession No: CRL-2577) and HCT-116 (DSMZ Accession No: ACC-581).
as §1

CN1C(=O)C2CN(Cc3c2c2ccccc2n3Cc2ccc(C(=O)NO)cc2)C1=O (stereo not drawn) [MARB1, N-Hydroxy-4-((4-methyl-3,5-dioxo-3,4,5,6-tetrahydro-2,6-methano[1,3]diazocino[5,6-b]indol-11(1H)-yl)methyl)benzamide]
concentration with about the same potency in hyperacetylation of tubulin-α (HEL leukemic cells): ~1 µM | hyperacetylation of tubulin (RKO cells; 0.5 μM, 24 h): sufficient to induce hyperacetylation of tubulin | HDAC6 loss in staurosporin (ST)-treated cells (RKO cells; with staurosporine): protects ST-treated RKO cells
